Values quoted from earlier work as cited in patent US20110293528A1, “ENEMA PREPARATIONS AND THEIR USE” (PHOTOCURE ASA, priority 2008, published 2011).

Key:
[1] = tested on: pre-malignant conditions in the colon (polyps); details: enemas of 200 mg HAL in 500 ml or 1000 ml phosphate buffered saline (1.6 and 0.8 mmol per litre)
[2] = tested on: rectal adenoma or rectal cancer; details: 3.2 mmol per litre HAL, instillation time 30-45 minutes, rest time 30 minutes

For `CCCCCCOC(=O)CCC(=O)CN` [5-aminolevulinic acid hexyl ester], the “more polyps detected by PDD than when using white light endoscopic imaging” value [1] is listed as 28% and the “result of photodynamic detection” value [2] is listed as “satisfactory results”.
